We go through 10 compounds from PubChem BioAssay (NCI).

Molecules are shown by their SMILES. Values joined by “and” are separate entries in the source; they are usually repeats but may differ in a detail not shown here. Identical values can stand only once.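 Five concentrations, 48 hours, 96-well plates. GI50 marks 50% less growth. TGI is the concentration that stops growth completely.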 Where only a bound is given, the exact number is not on record here.

Common to all, as to experiment: growth of human tumour cells (NCI), 48 h
The subject of test [1] is MOLT-4 leukemia.
The subject of test [2] is HOP-62 NSCLC.
Test [3] deals with MCF7 breast.
The test system of test [4] is A549 NSCLC.
Test [5] has as its system HCC-2998 colon.
The test system of test [6] is UACC-257 melanoma.
Test [7] deals with TK-10 renal.
The test system of test [8] is M14 melanoma.
The subject of test [9] is SK-MEL-28 melanoma.
Test [10] deals with SF-295 CNS.

Consider `COc1cc2c(c(OC)c1OC)-c1ccc(OC)c(=O)cc1[C@@H](NC(=O)c1ccccc1)CC2`, for which the GI50 was less than 0.003 µM in [1]; less than 0.003 µM in test [2]; less than 0.003 µM in test [3]; less than 0.003 µM in test [4]; less than 0.003 µM in test [5]; 24.2 µM in [6]. Further, the results for the GI50 in [7], in test [9] and in test [10] were 0.0806 µM, less than 0.003 µM and 0.00623 µM, respectively. The TGI was 30 µM and > 73.2 µM in [1]; 30 µM and > 100 µM in [2]; 30 µM and > 7.65 µM in test [3]; 30 µM and > 100 µM in [4]; 30 µM and > 100 µM in test [6]; 30 µM and > 100 µM in test [7]. For the same compound, the TGI was 8.46 µM in test [8]; 30 µM and > 100 µM in test [9].
As to `N#C/C(=C1C=C(Br)/C(=N\O)C=C\1Cl)c1cccc2ccccc12`, the TGI in [1] was 17.6 µM; in test [2] it was 26.4 µM; in test [3], 28.6 µM; in [4], 26 µM; in test [5] it was 17.7 µM; in test [6], 20.5 µM. The TGI in test [7] stood at 24.1 µM; in [8], 11.7 µM; in test [9] it was 21.9 µM; in test [10] it was 12.3 µM.
Take `COc1ccc(/C=C/c2ccnc3ccccc23)c(OC)c1`: the TGI in test [1], in test [2], in test [3], in test [4], in [5] and in test [6] was more than 10 µM throughout. The TGI in test [7], in test [8], in test [9] and in test [10] was more than 10 µM in each case.
`COC(C(O)CO)C(O)C(O)C(=O)NNc1ccccc1` (stereo not given): the TGI in test [1], in test [2], in test [3], in test [4], in [5] and in test [6] was more than 100 µM in each case. In addition, the TGI in test [7], in [8], in [9] and in test [10] was more than 100 µM each time.
Regarding `Clc1nc(Cl)c(Cl)c(-c2ccccc2)n1`, the TGI stood at 3.99 µM in test [1]; 18.1 µM in test [2]; 48.7 µM in test [3]; 27.9 µM in test [4]; 78 µM in test [5]; 44.2 µM in [6]. Further, the TGI in [7] is 32.9 µM; in test [8] it was 3.72 µM; in test [9] it was 32.8 µM; in test [10] it was 17.1 µM.
Consider `NCC1Nc2ccccc2[C@@H](O)C1O` (stereo not given in full), for which the TGI in test [1], in test [2], in [3], in test [4], in test [5] and in [6] was more than 100 µM in each case. Besides, the TGI in [7], in [8], in [9] and in [10] was more than 100 µM each time.
Turning to `COc1cc(/C=C/c2cc(/C=C/c3ccc(O)c(OC)c3)n(C(=O)Nc3ccc(F)c(Cl)c3)n2)ccc1O`, the GI50 was 0.282 µM in test [1]; 0.409 µM in [2]; 0.185 µM in test [3]; 0.387 µM in [4]; 0.639 µM in test [5]; 1.18 µM in [6]. In addition, the GI50 in test [7] was 0.58 µM; in [8], 0.114 µM; in [9], 0.52 µM; in test [10] it was 0.544 µM. For the same compound, the TGI in [1] is 1.4 µM; in [2], 1.59 µM; in test [3] it was 1.51 µM; in [4], 3.47 µM; in [5], 3.71 µM; in [6], 5.32 µM. For the same compound, the TGI in test [7] was determined as 3.56 µM; in test [8], 1.59 µM; in test [9], 3.92 µM; in [10], 2.6 µM.
Regarding `CC(=O)/C(C)=N/NC(=O)c1ccccc1O`, the TGI in test [1], in test [2], in test [3], in test [4], in [5] and in [6] was more than 100 µM throughout. The TGI in test [7], in test [8], in test [9] and in test [10] was more than 100 µM each time. Moreover, the GI50 in test [2], in [4], in test [5], in [6], in test [7] and in test [8] was more than 100 µM each time. Also, the GI50 in [9] and in test [10] was more than 100 µM each time.
Take `COc1ccc(Nc2c3ccccc3nc3occc23)cc1`: the GI50 in test [1] was 1.55 µM; in test [2], 5.42 µM; in [3], 0.682 µM; in [4], 3.26 µM; in test [5] it was 0.541 µM; in test [6], 9.98 µM. In addition, the GI50 in test [7] was 1.61 µM; in test [8] it was 2.14 µM; in test [9] it was 3.06 µM; in [10], 0.533 µM. The TGI in [1] is more than 33 µM; in [2], 30.1 µM; in test [3], 36.1 µM; in test [4] it was 41.6 µM; in test [5] it was 12.2 µM; in [6], 28.9 µM. For the same compound, the TGI in [7] was 20.6 µM; in [8] it was more than 43.1 µM; in [9] it was 22.8 µM; in [10], 8.09 µM.
Turning to `CN1c2ccc(Cl)cc2C(=O)NC1c1ccc([N+](=O)[O-])s1` (stereo not given), the TGI in test [1] amounted to 33.7 µM; in [2], 59.6 µM; in [3], 44.6 µM; in test [4] it was 92 µM; in test [5], 31.1 µM; in test [6] it was 29.1 µM. Further, the TGI in test [7] came to 48.5 µM; in [8], 32.5 µM; in test [9] it was 43.7 µM; in test [10] it was 85.7 µM.
